Test results: ChEMBL document CHEMBL5046228 (Eur J Med Chem, 2022)

Experiments:
NCI-H1975 [1] = assay: Induction of apoptosis in human NCI-H1975 cells assessed as increase in early apoptotic cells at 0.02 uM after 36 hrs by annexin-V-FITC/PI staining based flow cytometric analysis (reference value: 1.24%); assay type: functional
NCI-H1975 [2] = assay: Induction of apoptosis in human NCI-H1975 cells assessed as increase in viable cells at 2.5 uM after 36 hrs by annexin-V-FITC/PI staining based flow cytometric analysis (reference value: 94.6%); assay type: functional

C#CCN(C)CCN(C)c1cc(OC)c(Nc2nccc(Nc3cn(C)c4ccccc34)n2)cc1NC(=O)C=C
Activity (NCI-H1975 [1]): 1.98%
Activity (NCI-H1975 [2]): 47.3%
